The values below come from patent US9315475B2 (MERCK SHARP & DOHME CORP., priority 2011, dated 2016).

Each structure is given as a SMILES string.

The EC50 is the concentration giving half of the maximal effect.

The first assay addresses T1, wildtype HIV-1 protease (Human immunodeficiency virus type 1 group M subtype B, UniProt P04585).
T1 construct: the wildtype HIV-1 protease (which was expressed in Escherichia coli); made in house; host or cells: Escherichia coli
The assay is described as follows: Assay for inhibition of microbial expressed HIV protease (Pepcleav). In kind it is biochemical. The following applies: wild type HIV-1 protease expressed in E. coli, peptide substrate, pH 5.5; mean of at least two independent experiments; read-out: Pepcleav. Put shortly: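 E. coli-expressed wild-type HIV-1 protease (20 pM) preincubated 30 min at room temperature with inhibitor in pH 5.5 sodium acetate/NaCl/BSA buffer, then 400 μM Val-Ser-Gln-Asn-(βnaphthyl)Ala-Pro-Ile-Val added for 1 h at 30 °C. Quenched with formic acid; product quantified by LC-MS/MS peak area, indinavir internal standard.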
For the compound `CCC[C@H](c1ccccc1)[C@H](N)C(=O)Nc1cccc(F)c1CC[C@@H]1CN[C@H](COC(=O)NCC(F)(F)F)CO1` [Example 228, (βR)-N-(3-fluoro-2-{2-[(2R,5S)-5-({[(2,2,2-trifluoroethyl)carbamoyl]oxy}methyl)morpholin-2-yl]ethyl}phenyl)-β-propyl-L-phenylalaninamide], the IC50 came out at 190 nM.

With `CN1CCC(NC(=O)OC[C@@H]2CO[C@H](CCc3c(F)cncc3NC(=O)[C@@H](N)C(c3ccc(F)cc3)c3ccc(F)cc3)CN2)C1` (stereo partly drawn) [Example 229, 4-fluoro-N-(5-fluoro-4-{2-[(2R,5S)-5-({[(1-methylpyrrolidin-3-yl)carbamoyl]oxy}methyl)morpholin-2-yl]ethyl}pyridin-3-yl)-β-(4-fluorophenyl)-L-phenylalaninamide], the IC50 stood at 190 nM.

With `N[C@H](C(=O)Nc1cccc(F)c1CC[C@@H]1CN[C@H](COC(=O)NCC(F)(F)F)CO1)[C@H](c1ccc(F)cc1)c1ccc(Oc2ccccc2)cc1` [Example 230, (βS)-β-(4-fluorophenyl)-N-(3-fluoro-2-{2-[(2R,5S)-5-({[(2,2,2-trifluoroethyl)carbamoyl]oxy}methyl)morpholin-2-yl]ethyl}phenyl)-O-phenyl-L-tyrosinamide], the IC50 was 180 nM.

For `N[C@H](C(=O)Nc1cccc(F)c1CC[C@@H]1CN[C@H](COC(=O)NCC(F)(F)F)CO1)[C@H](c1ccc(F)cc1)c1ccc(OC(F)(F)F)cc1` [Example 231, (βS)-β-(4-fluorophenyl)-N-(3-fluoro-2-{2-[(2R,5S)-5-({[(2,2,2-trifluoroethyl)carbamoyl]oxy}methyl)morpholin-2-yl]ethyl}phenyl)-O-(trifluoromethyl)-L-tyrosinamide], the IC50 was found to be 150 nM.

Take `CS(=O)(=O)CC[C@@H]1CO[C@H](COc2c(F)cccc2NC(=O)[C@@H](N)C(c2ccccc2)c2ccccc2)CN1` [Example 232, N-[3-fluoro-2-({(2S,5R)-5-[2-(methylsulfonyl)ethyl]morpholin-2-yl}methoxy)phenyl]-β-phenyl-L-phenylalaninamide]: the IC50 is 150 nM.

Consider `N[C@H](C(=O)Nc1cncc(F)c1CC[C@@H]1CN[C@H](COC(=O)NCCN2CCCC2)CO1)C(c1ccc(F)cc1)c1ccc(F)cc1` [Example 233, 4-fluoro-β-(4-fluorophenyl)-N-(5-fluoro-4-{2-[(2R,5S)-5-({[(2-pyrrolidin-1-ylethyl)carbamoyl]oxy}methyl)morpholin-2-yl]ethyl}pyridin-3-yl)-L-phenylalaninamide], for which the IC50 came to 110 nM.

For the compound `N[C@H](C(=O)Nc1cccc(C(F)(F)F)c1CC[C@@H]1CN[C@H](COC(=O)NCC(F)(F)F)CO1)C(c1ccccc1)c1ccccc1` [Example 234, β-phenyl-N-[2-{2-[(2R,5S)-5-({[(2,2,2-trifluoroethyl)carbamoyl]oxy}methyl)morpholin-2-yl]ethyl}-3-(trifluoromethyl)phenyl]-L-phenylalaninamide], the IC50 came out at 110 nM.

In the case of `COC(=O)N[C@H](C(=O)Nc1cccc(F)c1CC[C@@H]1CN[C@H](COC(=O)NCC(F)(F)F)CO1)[C@H](c1ccc(F)cc1)c1cccc(OC)c1` [Example 306, (βR)-4-fluoro-N-(3-fluoro-2-{2-[(2R, 5S)-5-({[(2,2,2-trifluoroethyl)carbamoyl]oxy}methyl)morpholin-2-yl]ethyl}phenyl)-Nα-(methoxy-carbonyl)-β-(3-methoxyphenyl)-L-phenylalaninamide], the IC50 was 170 nM.

The test system of another assay is HIV-1 (H9IIIB strain). The assay is described as follows: Antiviral acute infection assay in cell culture (Spread). The conditions noted are these: Human immunodeficiency virus 1, T-lymphoid, HIV-1 H9IIIB infection of MT-4 human T-lymphoid cells in 10% FBS; mean of at least two independent experiments. In kind it is cell-based. The source says:
Antiviral Assays in Cell Culture (“Spread”)
Acute Infection Assay (“Spread”) data were generated using HIV-1 (H9IIIB strain) infection of MT-4 human T-lymphoid cells in 10% FBS, and according to the methods disclosed by J. P. Vacca et al, “L-735,524: An orally bioavailable human immunodeficiency virus type 1 protease inhibitor,” Proc. Natl. Acad. Sci. USA, Vol. 91, pp. 4096-4100 (April 1994).
Regarding `O=C(CC(c1ccc(F)cc1)c1ccc(F)cc1)Nc1cncc(F)c1CC[C@@H]1CN[C@H](CNC(=O)OCC(F)(F)F)CO1` [Example 85, 2,2,2-trifluoroethyl ({(3R,6R)-6-[2-(3-{[3,3-bis(4-fluoro-phenyl)propanoyl]amino}-5-fluoropyridin-4-yl)ethyl]morpholin-3-yl}methyl)carbamate], the response was half-maximal at 87 nM (EC50).

In turn, `O=C(CC(c1ccc(F)cc1)c1ccc(F)cc1)Nc1cccc(F)c1CC[C@@H]1CN[C@H](CNC(=O)OCC(F)(F)F)CO1` [Example 87, 2,2,2-trifluoroethyl ({(3R,6R)-6-[2-(2-{[3,3-bis(4-fluoro-phenyl)propanoyl]amino}-6-fluorophenyl)ethyl]morpholin-3-yl}methyl) carbamate] registered a concentration giving a half-maximal response (EC50) of 2200 nM.

Turning to `N[C@H](C(=O)Nc1cccc(F)c1CC[C@@H]1CN[C@H](CNC(=O)OCC(F)(F)F)CO1)C(c1ccc(F)cc1)c1ccc(F)cc1` [Example 88, 4-fluoro-β-(4-fluorophenyl)-N-(3-fluoro-2-{2-[(2R,5R)-5-({[(2,2,2-trifluoro-ethoxy)carbonyl]amino}methyl)morpholin-2-yl]ethyl}phenyl)-L-phenylalaninamide], the concentration giving a half-maximal response (EC50) worked out at 450 nM.

`N[C@H](C(=O)Nc1cncc(F)c1CC[C@@H]1CN[C@H](COC(=O)NCC(F)(F)F)CO1)[C@@H](c1ccc(Cl)cc1)c1cccc(OC(F)(F)F)c1` [Example 98, (βS)-β-(4-Chlorophenyl)-N-(5-fluoro-4-{2-[(2R,5S)-5-({[(2,2,2-trifluoroethyl)carbamoyl]oxy}methyl)morpholin-2-yl]ethyl}pyridin-3-yl)-3-(trifluoromethoxy)-L-phenylalaninamide] returned an EC50 of 28 nM.

In turn, `N[C@H](C(=O)Nc1cccc(F)c1CC[C@@H]1CN[C@H](COC(=O)NCC(F)(F)F)CO1)[C@H](c1ccc(Cl)cc1)c1ccc2c(c1)OCO2` [Example 100, {(3S,6R)-6-[2-(2-{[(3R)-3-(1,3-Benzodioxol-5-yl)-3-(4-chlorophenyl)-L-alanyl]amino}-6-fluorophenyl)ethyl]morpholin-3-yl}methyl (2,2,2-trifluoroethyl)carbamate] yielded an EC50 of 39 nM.

`N#Cc1ccc([C@H](c2ccc(F)c(F)c2)[C@H](N)C(=O)Nc2cccc(F)c2CC[C@@H]2CN[C@H](COC(=O)NCC(F)(F)F)CO2)cc1` [Example 102, (βR)-β-(4-Cyanophenyl)-3,4-difluoro-N-(3-fluoro-2-{2-[(2R,5S)-5-({[(2,2,2-trifluoroethyl)carbamoyl]oxy}methyl)morpholin-2-yl]ethyl}phenyl)-L-phenylalaninamide] yielded an EC50 of 37 nM.

Take `COC(=O)N[C@H](C(=O)Nc1cncc(F)c1CC[C@@H]1CN[C@H](COC(=O)NCC(F)(F)F)CO1)[C@@H](c1ccc(Cl)cc1)c1ccc2c(c1)OCO2` [Example 104, (βS)-β-1,3-Benzodioxol-5-yl-4-chloro-N-(5-fluoro-4-{2-[(2R,5S)-5-({[(2,2,2-trifluoroethyl)carbamoyl]oxy}methyl)morpholin-2-yl]ethyl}pyridin-3-yl)-Nα-(methoxycarbonyl)-L-phenylalaninamide]: the EC50 was determined as 26 nM.

For `COC(=O)N[C@H](C(=O)Nc1cncc(F)c1CC[C@@H]1CN[C@H](COC(=O)NCC(F)(F)F)CO1)[C@@H](c1ccc(Cl)cc1)c1cccc(OC(F)(F)F)c1` [Example 106, (βS)-β-(4-Chlorophenyl)-N-(5-fluoro-4-{2-[(2R,5S)-5-({[(2,2,2-trifluoroethyl)carbamoyl]oxy}methyl)morpholin-2-yl]ethyl}pyridin-3-yl)-Nα-(methoxycarbonyl)-3-(trifluoromethoxy)-L-phenylalaninamide], the EC50 came to 6.5 nM.

`COC(=O)N[C@H](C(=O)Nc1cccc(F)c1CC[C@@H]1CN[C@H](COC(=O)NCC(F)(F)F)CO1)C(c1ccc(Cl)cc1)c1ccc(Cl)cc1` [Example 108, 4-Chloro-β-(4-chlorophenyl)-N-(3-fluoro-2-{2-[(2R,5S)-5-({[(2,2,2-trifluoroethyl)carbamoyl]oxy}methyl)morpholin-2-yl]ethyl}phenyl)-Nα-(methoxycarbonyl)-L-phenylalaninamide] showed an EC50 of 860 nM.
